Laboratory results as given in the supplement of paper PMC11451515.

What was measured:
Assay in all cases: AUC of viability dose-response curve (% viability x log10 dose units); higher = less sensitive
Settings in all cases: 48 h
NOMO1 = tested on: NOMO1
Summary of the method: (§1)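 Library compounds in DMSO were applied for 48 h at 37°C at 11 threefold doses (47 μM to 0.79 nM) to medium-adapted leukemia cells in 1536-well plates holding 500 or 1000 cells/well. Luminescence from CellTiter-Glo One was normalised plate by plate against DMSO and cell-free wells. Area under the curve came from trapezoidal integration of a log-logistic fit, after scaling curves that rose above full viability and discarding those that failed quality control. The fit had four parameters and used log10 doses.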

P12-Ichikawa = tested on: P12-Ichikawa
Summary of the method: as §1

SEM cells = tested on: SEM cells
Summary of the method: as §1

[1] = RPMI 5 mM glucose + 10% dialyzed FBS

| SMILES | AUC of viability dose-response curve (NOMO1; HPLM + 10% dialyzed FBS) | AUC of viability dose-response curve (NOMO1; RPMI 5 mM glucose + 10% FBS) | AUC of viability dose-response curve (NOMO1; [1]) | AUC of viability dose-response curve (P12-Ichikawa; HPLM + 10% dialyzed FBS) | AUC of viability dose-response curve (P12-Ichikawa; RPMI 5 mM glucose + 10% FBS) | AUC of viability dose-response curve (P12-Ichikawa; [1]) | AUC of viability dose-response curve (SEM cells; HPLM + 10% dialyzed FBS) | AUC of viability dose-response curve (SEM cells; RPMI 5 mM glucose + 10% FBS) | AUC of viability dose-response curve (SEM cells; [1]) |
| --- | --- | --- | --- | --- | --- | --- | --- | --- | --- |
| CC1=CC2=C(O1)C(=C3OC(=O)\C=C(C)/C3=C2)C | 446 | 466 | 451 | 468 | 469 | 468 | 404 | 453 | 447 |
| CC1OC(OC/2=C(/OC3=C(C(=CC(=C3)O)O)C2=O)C4=CC=C(O)C=C4)C(O)C(OC(C)=O)C1OC(C)=O (stereo not drawn) | 440 | 430 | 466 | 454 | 455 | 460 | 463 | 367 | 465 |
| N/C(=N\C(=O)c1nc(Cl)c(N)nc1N)NCc1ccccc1 | 448 | 405 | 447 | 465 | 449 | 436 | 449 | 407 | 436 |
| CC1(C)CC(=O)c2c(C(F)(F)F)nn(-c3ccc(C(N)=O)c(NC4CCC(OC(=O)CN)CC4)c3)c2C1 (stereo not drawn) | 292 | 273 | 281 | 346 | 297 | 308 | 288 | 290 | 276 |
| CN(C)c1ccc(C(=O)NCCCCCCC(=O)NO)cc1 | 358 | 343 | 354 | 329 | 330 | 317 | 311 | 314 | 316 |
| Cc1ccc(F)c(NC(=O)Nc2ccc(-c3cccc4[nH]nc(N)c34)cc2)c1 | 464 | 472 | 471 | 470 | 472 | 470 | 314 | 256 | 296 |
| Cn1c(=O)c2c(ncn2CC(O)CO)n(C)c1=O (stereo not drawn) | 470 | 462 | 455 | 435 | 449 | 460 | 440 | 469 | 421 |
| OC1=C(C=CC=C1)C2=CC=C(C=C2)C3=CSC4=C3C(=C(/C#N)C(=O)N4)/O | 462 | 449 | 453 | 448 | 456 | 453 | 453 | 434 | 457 |
| Cc1cnc(Nc2ccc(OCCN3CCCC3)cc2)nc1Nc1cccc([S+](=O)([O-])NC(C)(C)C)c1 | 477 | 470 | 473 | 469 | 471 | 468 | 427 | 458 | 447 |
| Clc1ccc(COC(Cn2ccnc2)c2ccc(Cl)cc2Cl)cc1 (stereo not drawn) | 473 | 473 | 470 | 477 | 463 | 452 | 408 | 468 | 431 |
| O=C(Oc1ccc([N+](=O)[O-])cc1)N1CCN(Cc2cccc(Oc3ccccc3)c2)CC1 | 469 | 460 | 451 | 468 | 475 | 457 | 433 | 453 | 468 |
| CCOC(=O)c1ncn2c1CN(C)C(=O)c1cc(F)ccc1-2 | 433 | 432 | 465 | 427 | 432 | 424 | 421 | 420 | 422 |
| CN[C@@H](C)C(=O)N[C@H]1CCCC[C@H]2CC[C@@H](C(=O)N[C@@H](c3ccccc3)c3cn(CCCCc4ccc(CCCCn5cc([C@@H](NC(=O)[C@@H]6CC[C@@H]7CCCC[C@H](NC(=O)[C@H](C)NC)C(=O)N76)c6ccccc6)nn5)cc4)nn3)N2C1=O | 250 | 325 | 297 | 465 | 471 | 450 | 431 | 417 | 418 |
| CC(Oc1ccc(O)cc1)(P(=O)(O)O)P(=O)(O)O | 415 | 399 | 405 | 434 | 401 | 418 | 427 | 420 | 421 |
| c1ccc2c(Oc3nc(Nc4ccc(N5CCOCC5)cc4)c4ncn(C5CCCCC5)c4n3)cccc2c1 | 439 | 440 | 466 | 451 | 462 | 466 | 462 | 452 | 458 |
| CCOC(=O)c1ccc(C#Cc2ccc3c(c2)C(C)(C)CCS3)nc1 | 436 | 467 | 450 | 470 | 469 | 475 | 472 | 477 | 446 |
| N=C(N)c1ccc(OCCCCCOc2ccc(C(=N)N)cc2)cc1 | 441 | 447 | 441 | 467 | 456 | 458 | 457 | 463 | 465 |
| CC(C)(Cc1ccc2ccccc2c1)NC[C@@H](O)COc1cccc(Cl)c1C#N | 458 | 455 | 451 | 453 | 449 | 451 | 448 | 466 | 438 |
| CCC1=C(C)CN(C(=O)NCCc2ccc(S(=O)(=O)NC(=O)N[C@H]3CC[C@H](C)CC3)cc2)C1=O | 475 | 439 | 457 | 458 | 442 | 458 | 417 | 443 | 445 |
| N#Cc1c(C2CCNCC2)cc(-c2c(O)cccc2OCC2CC2)nc1N | 455 | 450 | 447 | 453 | 430 | 446 | 441 | 446 | 435 |
| CC(C)[C@H](CO)Nc1nc(Nc2ccc(C(=O)O)c(Cl)c2)c2ncn(C(C)C)c2n1 | 428 | 445 | 462 | 432 | 414 | 425 | 428 | 412 | 462 |
| CNC(=O)c1cc(Oc2ccc(NC(=O)Nc3cc(C(C)(C)C)nn3-c3ccc4ncccc4c3)c(F)c2)ccn1 | 433 | 452 | 450 | 464 | 465 | 469 | 375 | 359 | 335 |
| COC(=O)N[C@H](C(=O)N[C@@H](Cc1ccccc1)[C@@H](O)CN(Cc1ccc(-c2ccccn2)cc1)NC(=O)[C@@H](NC(=O)OC)C(C)(C)C)C(C)(C)C | 388 | 470 | 453 | 455 | 467 | 451 | 464 | 457 | 469 |
| COc1ccc2cc(-c3[nH]c(-c4ccc([S+](C)[O-])cc4)nc3-c3ccncc3)ccc2c1 (stereo not drawn) | 461 | 390 | 435 | 472 | 468 | 464 | 451 | 463 | 460 |
| CCc1cc(/C(C)=N/OCc2ccc(C3CCCCC3)c(C(F)(F)F)c2)ccc1CN1CC(C(=O)O)C1 | 385 | 418 | 420 | 418 | 414 | 414 | 455 | 452 | 463 |
| CCCn1c(=O)c2[nH]c(C34CC5CC3C[C@@H](C5)C4)nc2n(CCC)c1=O | 454 | 442 | 463 | 462 | 410 | 460 | 477 | 416 | 457 |
| CN(C)c1nc(N(C)C)nc(N(C)C)n1 | 440 | 454 | 454 | 435 | 436 | 441 | 465 | 453 | 461 |
